Laboratory results from ChEMBL document CHEMBL1124633, “Antimalarials. 16. Synthesis of 2-substituted analogues of 8-[(4-amino-1-methylbutyl)amino]-6-methoxy-4-methyl-5-[3- (trifluoromethyl)phenoxy]quinoline as candidate antimalarials” (J Med Chem, 1989).

What was measured:
[1] = Acute toxicity administered orally was determined in 74 male rats; settings: rat, in vivo, po
[2] = Acute toxicity administered intra peritoneally was determined in 74 male rats; settings: rat, in vivo, ip
[3] = Molar primaquine index is ratio of ED50 of Compound by ED50 of primaquine in rhesus monkey; type: functional
[4] = Acute toxicity administered orally was determined in 85 female rats; settings: rat, in vivo, po
[5] = Acute toxicity administered intra peritoneally was determined in 85 female rats; settings: rat, in vivo, ip
[6] = Molar primaquine index is ratio of ED50 of Primaquine by ED50 of primaquine in rhesus monkey; type: functional
[7] = Acute toxicity administered intraperitoneally was determined in female rats; type: organism-based; settings: rat, in vivo, ip
[8] = Acute toxicity administered orally was determined in female rats; type: organism-based; settings: rat, in vivo, po
[9] = Acute toxicity administered intraperitoneally was determined in male rats; type: organism-based; settings: rat, in vivo, ip
[10] = Acute toxicity administered orally was determined in male rats; type: organism-based; settings: rat, in vivo, po

COc1cc(NC(C)CCCN)c2nccc(C)c2c1Oc1cccc(C(F)(F)F)c1 (configuration not stated)
LD50 [1]: 256 mg/kg
LD50 [2]: 86 mg/kg
Ratio [3]: 6.8
LD50 [4]: 401 mg/kg
LD50 [5]: 54 mg/kg

COc1cc(NC(C)CCCN)c2nc(OC)cc(C)c2c1 (configuration not stated)
Ratio [3]: 6.8

COc1cc(NC(C)CCCN)c2ncccc2c1 (configuration not stated) [PRIMAQUINE]
Ratio [6]: 1

COc1cc(C)c2c(Oc3cccc(C(F)(F)F)c3)c(OC)cc(NC(C)CCCN)c2n1 (configuration not stated) [TAFENOQUINE]
LD50 [7]: 71 mg/kg
LD50 [8]: 416 mg/kg
Ratio [3]: 12.8
LD50 [9]: 102 mg/kg
LD50 [10]: 429 mg/kg
